The text below walks through data of BindingDB's records for doi:10.1124/jpet.103.059675 (Wyeth Research, 2004).

As usually defined, the IC50 is the concentration needed to halve the response being measured. Lower therefore signals higher potency.

Assay [1] addresses Disintegrin and metalloproteinase domain-containing protein 17 (Homo sapiens, UniProt P78536). The assay can be described thus: TACE Inhibition Assay. The following applies: pH 7.4; 22 °C. The method, then:
Compounds were tested for their ability to inhibit the cleavage of the substrate by the purified enzyme in a fluorescence-based fluorescence resonance energy transfer (FRET) assay. The human TACE protein was pretreated with the inhibitors for 10 min at room temperature. The reaction was initiated by the addition of pro-TNF-alpha peptide to the TACE protein, and the increase in fluorescence was monitored at excitation of 320 nm and emission of 420 nm over a period of 10 min. Under this assay condition, the IC50 value is very close to the Ki value.

Assay [2] deals with 72 kDa type IV collagenase (Homo sapiens, UniProt P08253). The assay can be described thus: MMP Inhibition Assay. As to conditions: pH 7.4; 22 °C. Here is the method: (§1) A continuous assay was used in which the substrate is a synthetic peptide containing a fluorescent group (7-methoxycoumarin), which is quenched by energy transfer to a 2,4-dinitrophenyl group. […] The enzymatic reactions were initiated by adding the substrate, and the initial rate of the cleavage reaction was determined immediately after substrate addition.

A further assay addresses T1, Interstitial collagenase (Homo sapiens, UniProt P03956).
T1 sequence (P03956 whole entry): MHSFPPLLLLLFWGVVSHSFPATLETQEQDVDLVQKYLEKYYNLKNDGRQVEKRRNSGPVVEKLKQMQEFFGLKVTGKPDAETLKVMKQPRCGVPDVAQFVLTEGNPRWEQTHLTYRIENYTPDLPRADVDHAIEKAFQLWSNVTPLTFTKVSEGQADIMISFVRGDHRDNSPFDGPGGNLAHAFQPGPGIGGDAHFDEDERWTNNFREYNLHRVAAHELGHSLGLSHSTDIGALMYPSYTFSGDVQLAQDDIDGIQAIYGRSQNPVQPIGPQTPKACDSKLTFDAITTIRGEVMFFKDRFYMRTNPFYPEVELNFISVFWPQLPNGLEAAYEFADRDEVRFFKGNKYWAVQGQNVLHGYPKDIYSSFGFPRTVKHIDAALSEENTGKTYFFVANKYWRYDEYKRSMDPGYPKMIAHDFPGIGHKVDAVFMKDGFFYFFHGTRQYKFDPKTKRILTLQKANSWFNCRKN
Nature of the assay: MMP Inhibition Assay. The following applies: pH 7.4; 22 °C. Here is the method:
as §1

A further assay concerns the target T2, Matrilysin (Homo sapiens, UniProt P09237).
T2 sequence (P09237 whole entry): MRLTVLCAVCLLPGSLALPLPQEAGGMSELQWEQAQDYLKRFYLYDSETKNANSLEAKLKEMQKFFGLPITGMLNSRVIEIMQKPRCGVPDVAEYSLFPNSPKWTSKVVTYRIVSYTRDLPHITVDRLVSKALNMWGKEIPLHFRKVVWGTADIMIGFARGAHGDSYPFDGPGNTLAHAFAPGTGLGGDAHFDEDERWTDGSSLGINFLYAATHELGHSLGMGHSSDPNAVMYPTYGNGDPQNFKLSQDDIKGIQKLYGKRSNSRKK
Nature of the assay: MMP Inhibition Assay. As to conditions: pH 7.4; 22 °C. Here is the method: as §1

The target of assay [3] is Matrix metalloproteinase-14 (Homo sapiens, UniProt P50281). The assay can be described thus: MMP Inhibition Assay. As to conditions: pH 7.4; 22 °C. The method, then: as §1
Assay [4] addresses T3, A disintegrin and metalloproteinase with thrombospondin motifs 4 (Homo sapiens, UniProt O75173).
T3 sequence (O75173 whole entry): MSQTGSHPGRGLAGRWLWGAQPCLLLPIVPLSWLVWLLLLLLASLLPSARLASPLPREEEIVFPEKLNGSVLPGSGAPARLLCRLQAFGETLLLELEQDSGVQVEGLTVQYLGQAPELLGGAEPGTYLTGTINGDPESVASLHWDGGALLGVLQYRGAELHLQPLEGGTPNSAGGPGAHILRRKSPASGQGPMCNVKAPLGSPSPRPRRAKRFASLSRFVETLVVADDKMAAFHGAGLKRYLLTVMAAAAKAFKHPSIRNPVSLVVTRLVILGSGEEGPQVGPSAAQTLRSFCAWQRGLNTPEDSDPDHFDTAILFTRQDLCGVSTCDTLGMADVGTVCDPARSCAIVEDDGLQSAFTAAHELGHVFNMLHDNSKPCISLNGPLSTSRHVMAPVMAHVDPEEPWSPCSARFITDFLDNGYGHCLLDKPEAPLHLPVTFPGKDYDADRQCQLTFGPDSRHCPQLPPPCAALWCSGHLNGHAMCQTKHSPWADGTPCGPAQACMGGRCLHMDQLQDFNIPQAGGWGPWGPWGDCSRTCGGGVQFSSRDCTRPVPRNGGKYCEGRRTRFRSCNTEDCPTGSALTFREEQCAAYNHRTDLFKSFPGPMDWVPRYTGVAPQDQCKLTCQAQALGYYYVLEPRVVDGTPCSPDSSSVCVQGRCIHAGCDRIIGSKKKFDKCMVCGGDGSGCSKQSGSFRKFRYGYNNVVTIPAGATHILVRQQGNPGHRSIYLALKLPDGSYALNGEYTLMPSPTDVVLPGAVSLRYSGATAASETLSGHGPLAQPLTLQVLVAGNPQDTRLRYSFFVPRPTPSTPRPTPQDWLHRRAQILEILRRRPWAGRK
The assay can be described thus: Aggrecanase-1 Inhibition Assay. As to conditions: pH 7.5; 37 °C. The method, then: The recombinant Agg-1 proteins pretreated with the various concentrations of the compound for 10 to 15 min. The reaction was initiated by addition of the WAAG-3R substrate at a final concentration of 25 uM. The reaction is monitored at excitation of 340 nm and emission of 420 nm over a period of 30 min in a fluorimeter (GeminiXS; Molecular Devices Corp., Sunnyvale, CA).

Structures are written as SMILES.

Disintegrin and metalloproteinase domain-containing protein 17, sequence (P78536 whole entry, the tested form may be a part): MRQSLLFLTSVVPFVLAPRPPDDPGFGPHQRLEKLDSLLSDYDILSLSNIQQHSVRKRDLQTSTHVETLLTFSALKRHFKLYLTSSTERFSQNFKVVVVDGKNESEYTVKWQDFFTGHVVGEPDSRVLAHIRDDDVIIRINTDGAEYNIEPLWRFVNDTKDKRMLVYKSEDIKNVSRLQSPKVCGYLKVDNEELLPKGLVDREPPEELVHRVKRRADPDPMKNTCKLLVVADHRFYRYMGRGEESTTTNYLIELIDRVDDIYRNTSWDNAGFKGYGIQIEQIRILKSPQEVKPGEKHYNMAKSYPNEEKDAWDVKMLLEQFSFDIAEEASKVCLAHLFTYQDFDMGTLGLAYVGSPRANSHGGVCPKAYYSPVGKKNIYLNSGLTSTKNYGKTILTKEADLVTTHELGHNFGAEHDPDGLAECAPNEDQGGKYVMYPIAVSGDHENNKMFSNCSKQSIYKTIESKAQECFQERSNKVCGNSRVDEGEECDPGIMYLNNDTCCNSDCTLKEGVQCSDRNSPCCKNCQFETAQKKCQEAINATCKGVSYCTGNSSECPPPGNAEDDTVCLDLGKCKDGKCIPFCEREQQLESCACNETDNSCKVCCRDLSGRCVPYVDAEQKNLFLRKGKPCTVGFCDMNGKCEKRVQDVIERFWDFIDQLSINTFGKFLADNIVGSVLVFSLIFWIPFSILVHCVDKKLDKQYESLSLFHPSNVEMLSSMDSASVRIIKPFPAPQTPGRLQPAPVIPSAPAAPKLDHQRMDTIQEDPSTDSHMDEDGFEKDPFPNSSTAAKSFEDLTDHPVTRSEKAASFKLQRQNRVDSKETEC
72 kDa type IV collagenase, sequence (P08253 whole entry): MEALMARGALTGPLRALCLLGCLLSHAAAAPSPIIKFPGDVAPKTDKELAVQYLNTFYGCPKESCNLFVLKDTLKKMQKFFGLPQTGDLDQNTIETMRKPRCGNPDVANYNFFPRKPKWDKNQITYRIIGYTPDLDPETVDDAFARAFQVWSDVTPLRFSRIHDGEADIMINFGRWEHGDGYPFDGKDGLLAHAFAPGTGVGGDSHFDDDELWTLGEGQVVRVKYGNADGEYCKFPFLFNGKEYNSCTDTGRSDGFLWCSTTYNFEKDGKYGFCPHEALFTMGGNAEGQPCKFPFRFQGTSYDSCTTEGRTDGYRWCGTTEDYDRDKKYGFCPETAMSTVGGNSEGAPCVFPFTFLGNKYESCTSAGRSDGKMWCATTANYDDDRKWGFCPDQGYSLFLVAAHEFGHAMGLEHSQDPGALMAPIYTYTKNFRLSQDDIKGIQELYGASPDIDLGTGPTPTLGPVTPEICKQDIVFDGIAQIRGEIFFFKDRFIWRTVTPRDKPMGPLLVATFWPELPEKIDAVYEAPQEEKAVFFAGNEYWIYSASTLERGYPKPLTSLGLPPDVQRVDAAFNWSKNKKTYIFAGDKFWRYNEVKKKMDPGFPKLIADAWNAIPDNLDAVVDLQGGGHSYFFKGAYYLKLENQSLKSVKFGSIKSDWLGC

As for `CC#CCOc1ccc(S(=O)(=O)N2CCSC(C)(C)[C@@H]2C(=O)NO)cc1` [(3S)-4-{[4-(but-2-yn-1-yloxy)benzene]sulfonyl}-N-hydroxy-2,2-dimethylthiomorpholine-3-carboxamide], the IC50 in assay [1] was found to be 8.4 nM; in assay [2], 4.7 nM; at Interstitial collagenase it was 6.6 nM; at Matrilysin it was 26 nM; in assay [3], 26 nM; in assay [4], 100 nM.
